Here are results for 25 compounds from patent publication US20250171431A1, “HETEROCYCLIC INHIBITORS OF IGF-1R FOR TREATMENT OF DISEASE” (HORIZON THERAPEUTICS IRELAND DAC, priority 2023, published 2025).

IGF-1R, sequence (P08069 31-1367): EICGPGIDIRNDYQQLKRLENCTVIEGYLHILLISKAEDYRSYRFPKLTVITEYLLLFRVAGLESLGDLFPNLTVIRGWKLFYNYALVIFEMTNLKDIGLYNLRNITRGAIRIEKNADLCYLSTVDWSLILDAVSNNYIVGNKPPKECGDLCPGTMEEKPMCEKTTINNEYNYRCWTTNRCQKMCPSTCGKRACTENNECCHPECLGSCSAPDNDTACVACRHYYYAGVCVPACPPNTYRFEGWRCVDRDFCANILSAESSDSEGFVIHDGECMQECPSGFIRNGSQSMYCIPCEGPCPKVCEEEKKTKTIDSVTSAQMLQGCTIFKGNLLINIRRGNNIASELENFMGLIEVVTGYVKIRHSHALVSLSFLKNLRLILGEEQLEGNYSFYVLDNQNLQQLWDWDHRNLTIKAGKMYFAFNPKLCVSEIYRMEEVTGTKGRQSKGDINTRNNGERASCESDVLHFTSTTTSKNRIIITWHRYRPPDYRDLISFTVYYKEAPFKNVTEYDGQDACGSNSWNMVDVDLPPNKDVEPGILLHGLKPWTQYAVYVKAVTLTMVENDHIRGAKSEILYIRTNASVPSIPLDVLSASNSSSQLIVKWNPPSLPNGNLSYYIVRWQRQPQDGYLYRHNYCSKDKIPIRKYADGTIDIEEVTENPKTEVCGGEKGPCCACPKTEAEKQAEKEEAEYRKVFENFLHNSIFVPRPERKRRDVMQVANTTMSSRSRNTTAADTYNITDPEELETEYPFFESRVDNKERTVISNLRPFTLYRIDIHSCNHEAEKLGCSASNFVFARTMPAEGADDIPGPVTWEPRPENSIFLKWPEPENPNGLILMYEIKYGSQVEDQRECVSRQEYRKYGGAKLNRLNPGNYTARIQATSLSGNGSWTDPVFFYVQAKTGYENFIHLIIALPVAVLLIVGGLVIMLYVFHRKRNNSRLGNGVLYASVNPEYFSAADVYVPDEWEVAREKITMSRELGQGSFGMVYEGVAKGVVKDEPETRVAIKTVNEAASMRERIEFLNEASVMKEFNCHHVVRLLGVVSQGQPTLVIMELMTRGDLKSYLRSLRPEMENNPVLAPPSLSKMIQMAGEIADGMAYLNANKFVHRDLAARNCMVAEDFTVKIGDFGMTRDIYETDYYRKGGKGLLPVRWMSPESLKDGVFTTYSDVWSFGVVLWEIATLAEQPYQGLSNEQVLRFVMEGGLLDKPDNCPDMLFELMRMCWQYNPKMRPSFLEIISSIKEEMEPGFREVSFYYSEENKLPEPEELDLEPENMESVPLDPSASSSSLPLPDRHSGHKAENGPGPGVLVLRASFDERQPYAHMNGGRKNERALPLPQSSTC

In this test the target is IGF-1R (Homo sapiens (Human), UniProt P08069). Put plainly: Example B-1: IGF-1R Assay (PC3 cells, IGF1 stimulation, AlphaLISA). The following applies: 200 ng/mL IGF1 stimulation, read-out: Biological Activity against IGF-1R IC50. The class given is cell-based. The procedure:
50K PC3 cells were seeded on day 1 in 50 μL of media in 96-well plate and incubated overnight at 37° C., 5% CO2. On day 2, all cells were expected to be at 80-90% confluency. Cells were starved for two hours by changing the media to 90 μL of EMEM serum-free media and incubated for 2 hours. Next, cells were treated with 10 μL of 10× concentrated and 3× serially diluted compounds for two hours. It makes 1× of compounds in 100 μL media. This was followed by stimulation of cells with 11×IGF1 for 30 min in 10 μL of serum-free EMEM media at the final concentration of 200 ng/mL.
The media was removed and replaced by 50 μL of 1× lysis buffer from the AlphaLISA kit (with 1× of cOmplete™ protease inhibitor). The plates were sealed, and cells were allowed to lyse for 10 min in the shaker before storing the plate at −20° C. until used. The AlphaLISA assay with processed cell lysates were performed as described in the protocol. Briefly, 10 μL of the undiluted sample were loaded to 384 well Optiplates and 5 μL of the acceptor mix (as described in the AlphaLISA kit) was added to each well. The plates were sealed and briefly vortexed followed by the incubation at RT for 3 hours. In the dark, 5 μL of donor mix was added to each well. All plates were sealed and stored at RT overnight. The plates were read in EnVision reader using standard AlphaLISA settings.
Compound activity was analyzed using CBIS data analysis suite (ChemInnovation, CA). Percentage inhibition was calculated using the following formula: % Inhibition=100%×(1−(mean RLU of test sample−mean RLU of vehicle control)/(mean RLU of EC80 control−mean RLU of vehicle control)). The activity for representative examples of the invention is shown in the following table, wherein A: IC50≤500 nM; B: 500 nM<IC50≤2 μM; C: 2 μM<IC50≤10 μM; D: IC50>10 μM.
Take `COc1cc(Nc2nccc(Nc3cnc4cccc(F)c4c3)n2)ccc1OCCCN1CCCCC1` [Compound 423, 4-(5-fluoro-3-quinolylamino)-2-[3-methoxy-4-(3-piperidinopropoxy)phenylamino]pyrimidine]: the IC50 was at most 500 nM.
As for `c1cc(Nc2cnc3c(c2)C2CCC3CC2)nc(Nc2ccc(OCCCN3CCOCC3)cc2)n1` [Compound 373, 4-(3-azatricyclo[6.2.2.0^2,7]dodeca-2,4,6-trien-5-ylamino)-2-[p-(3-morpholinopropoxy)phenylamino] pyrimidine], the IC50 was at most 500 nM.
On to `Fc1cnc(Nc2ccc(OCCCN3CCCCC3)cc2)nc1Nc1cnc2ccccc2c1` [Compound 432, 5-fluoro-2-[p-(3-piperidinopropoxy)phenylamino]-4-(3-quinolylamino)pyrimidine], for which the 50% inhibitory concentration (IC50) is at most 500 nM.
In the case of `COc1cc(Nc2nccc(Nc3cnc4ccc(Cl)cc4c3)n2)cnc1O[C@H]1C[C@@H](N(C)C)C1` [Compound 131, N4-(6-chloroquinolin-3-yl)-N2-(6-((1s,3s)-3-(dimethylamino)cyclobutoxy)-5-methoxypyridin-3-yl)pyrimidine-2,4-diamine], the IC50 was at most 500 nM.
Next, `COc1cc(Nc2nccc(Nc3cnc4ccccc4c3)n2)ccc1O[C@H]1C[C@H](N2CCOCC2)C1` [Compound 22, 2-{3-methoxy-4-[(1r,3r)-3-morpholinocyclobutoxy]phenylamino}-4-(3-quinolylamino)pyrimidine]: at most 500 nM; `COc1cc(Nc2nccc(Nc3cnc4c(c3)COC(C)(C)C4)n2)ccc1OCCCN1CCCCC1` [Compound 385, 4-(7,7-dimethyl-7,8-dihydro-5H-6-oxa-1-azanaphth-3-ylamino)-2-[3-methoxy-4-(3-piperidinopropoxy)phenylamino]pyrimidine]: 500 to 2000 nM; `COc1cc(Nc2nccc(Nc3cnc4cc(F)c(F)cc4c3)n2)cnc1N1CCN(C)CC1` [Compound 468, 4-(6,7-difluoro-3-quinolylamino)-2-[5-methoxy-6-(4-methyl-1-piperazinyl)-3-pyridylamino]pyrimidine]: at most 500 nM.
Consider `Clc1ccc2ncc(Nc3ccnc(Nc4ccc(OCCCN5CCOCC5)cc4)n3)cc2c1` [Compound 401, 4-(6-chloro-3-quinolylamino)-2-[p-(3-morpholinopropoxy)phenylamino]pyrimidine], for which the IC50 was at most 500 nM.
On to `COc1cc(N2CCN(C)CC2)ncc1Nc1nccc(Nc2cnc3ccc(Cl)cc3c2)n1` [Compound 486, 4-(6-chloro-3-quinolylamino)-2-[4-methoxy-6-(4-methyl-1-piperazinyl)-3-pyridylamino]pyrimidine], for which the IC50 was at most 500 nM.
Consider `COc1cc(Nc2nccc(Nc3cnc4c(OC)cccc4c3)n2)ccc1O[C@H]1C[C@@H](N(C)C)C1` [Compound 312, 4-(8-methoxy-3-quinolylamino)-2-{3-methoxy-4-[(1s,3s)-3-(dimethylamino)cyclobutoxy]phenylamino}pyrimidine], for which the IC50 was at most 500 nM.
With `COc1cc(Nc2nccc(Nc3cnc4ccccc4c3)n2)cnc1O[C@H]1C[C@@H](N(C)C)C1` [Compound 132, N2-(6-((1s,3s)-3-(dimethylamino)cyclobutoxy)-5-methoxypyridin-3-yl)-N4-(quinolin-3-yl)pyrimidine-2,4-diamine], the IC50 is at most 500 nM.
On to `COc1cc(Nc2nccc(Nc3ccc4c(c3)OCCO4)n2)ccc1OCCCN1CCCCC1` [Compound 376, 4-(2,3-dihydro-1,4-benzodioxin-6-ylamino)-2-[3-methoxy-4-(3-piperidinopropoxy)phenylamino]pyrimidine], for which the concentration for half-maximal inhibition (IC50) is at most 500 nM.
As to `COc1cc(Nc2nccc(Nc3cnc4c(c3)OCCC4)n2)ccc1OCCCN1CCCCC1` [Compound 383, 4-(3,4-dihydro-2H-1-oxa-5-azanaphth-7-ylamino)-2-[3-methoxy-4-(3-piperidinopropoxy)phenylamino]pyrimidine], the concentration for half-maximal inhibition (IC50) is at most 500 nM.
For the compound `O=S1(=O)CCN(CCCOc2ccc(Nc3nccc(Nc4cnc5c(c4)OCCO5)n3)cc2)CC1` [Compound 506, 4-(3-{p-[4-(2,3-dihydro-1,4-dioxa-5-aza-7-naphthylamino)-2-pyrimidinylamino]phenoxy}propyl)-1λ^6,4-thiazinane-1,1-dione], the IC50 is at most 500 nM.
As to `CC1(C)CCc2cc(Nc3ccnc(Nc4ccc(OCCCN5CCOCC5)cc4)n3)cnc2C1` [Compound 64, 4-(7,7-dimethyl-5,6,7,8-tetrahydro-3-quinolylamino)-2-[p-(3-morpholinopropoxy)phenylamino] pyrimidine], the IC50 is at most 500 nM.
Next, `Clc1cccc2cc(Nc3ccnc(Nc4ccc(OCCCN5CCOCC5)cc4)n3)cnc12` [Compound 416, 4-(8-chloro-3-quinolylamino)-2-[p-(3-morpholinopropoxy)phenylamino]pyrimidine]: at most 500 nM; `O=C1CN([C@H]2CC[C@@H](Oc3ccc(Nc4nccc(Nc5cnc6ccccc6c5)n4)cc3)CC2)CCN1` [Compound 41]: at most 500 nM.
With `C#Cc1ccc2ncc(Nc3ccnc(Nc4ccc(O[C@H]5C[C@@H](N(C)C)C5)c(OC)c4)n3)cc2c1` [Compound 302, 4-(6-ethynyl-3-quinolylamino)-2-{3-methoxy-4-[(1s,3s)-3-(dimethylamino)cyclobutoxy]phenylamino}pyrimidine], the IC50 is at most 500 nM.
For the compound `CN(C)[C@H]1C[C@@H](Oc2ncc(Nc3nccc(Nc4cnc5c(c4)OCCO5)n3)cc2C#N)C1` [Compound 46, 5-[4-(2,3-dihydro-1,4-dioxa-5-aza-7-naphthylamino)-2-pyrimidinylamino]-2-[(1s,3s)-3-(dimethylamino)cyclobutoxy] nicotinonitrile], the 50% inhibitory concentration (IC50) was at most 500 nM.
In the case of `O=S1(=O)CCN([C@H]2C[C@H](Oc3ccc(Nc4nccc(Nc5cnc6ccc(Br)cc6c5)n4)cc3)C2)CC1` [Compound 347], the IC50 is at most 500 nM.
Next, `COc1cc(Nc2nccc(Nc3cnc(O[C@H]4CCCC[C@H]4O)c(F)c3)n2)ccc1O[C@H]1C[C@@H](N(C)C)C1` [Compound 180, (1R,2S)-2-[3-fluoro-5-(2-{3-methoxy-4-[(1s,3R)-3-(dimethylamino)cyclobutoxy]phenylamino}-4-pyrimidinylamino)-2-pyridyloxy]cyclohexanol]: at most 500 nM; `COc1cc(Nc2nccc(Nc3cnc4c(Cl)cccc4c3)n2)ccc1O[C@H]1C[C@H](N(C)C)C1` [Compound 358, 4-(8-chloro-3-quinolylamino)-2-{3-methoxy-4-[(1r,3r)-3-(dimethylamino)cyclobutoxy]phenylamino}pyrimidine]: at most 500 nM.
As for `COc1cc(Nc2nccc(Nc3cnc4ccc(Cl)cc4c3)n2)cnc1N1CCC(C)(O)CC1` [Compound 476, 1-{5-[4-(6-chloro-3-quinolylamino)-2-pyrimidinylamino]-3-methoxy-2-pyridyl}-4-methyl-4-piperidinol], the IC50 is at most 500 nM.
For the compound `COc1cc(Nc2nccc(Nc3cnc4c(c3)C3CCC4CC3)n2)ccc1OCCCN1CCCCC1` [Compound 209], the IC50 is at most 500 nM.
As for `COc1cc(Nc2nccc(Nc3cnc4ccc(C)cc4c3)n2)ccc1O[C@H]1C[C@H](N(C)C)C1` [Compound 335, 2-{3-methoxy-4-[(1r,3r)-3-(dimethylamino)cyclobutoxy]phenylamino}-4-(6-methyl-3-quinolylamino)pyrimidine], the figure is at most 500 nM.
